Reference: patent US11111232B2, “Substituted cyclobutylpyridine and cyclobutylpyrimidine compounds as indoleamine 2,3-dioxygenase (IDO) inhibitors” (MERCK SHARP & DOHME CORP., priority 2017, dated 2021)

Tests used:
Type in all cases: cell-based
IDO1 [1] = target: T1, IDO1 (Homo sapiens, UniProt P14902); experiment: IDO1 human whole blood assay; design: Human whole blood was drawn in sodium heparin coated tubes from healthy internal donors; from tissue; host or cells: human whole blood from healthy donors, stimulated with LPS and IFNγ; conditions: LPS and IFNγ 100 ng/mL, 18 h, kynurenine by LC/MS/MS
T1 sequence (P14902 whole entry): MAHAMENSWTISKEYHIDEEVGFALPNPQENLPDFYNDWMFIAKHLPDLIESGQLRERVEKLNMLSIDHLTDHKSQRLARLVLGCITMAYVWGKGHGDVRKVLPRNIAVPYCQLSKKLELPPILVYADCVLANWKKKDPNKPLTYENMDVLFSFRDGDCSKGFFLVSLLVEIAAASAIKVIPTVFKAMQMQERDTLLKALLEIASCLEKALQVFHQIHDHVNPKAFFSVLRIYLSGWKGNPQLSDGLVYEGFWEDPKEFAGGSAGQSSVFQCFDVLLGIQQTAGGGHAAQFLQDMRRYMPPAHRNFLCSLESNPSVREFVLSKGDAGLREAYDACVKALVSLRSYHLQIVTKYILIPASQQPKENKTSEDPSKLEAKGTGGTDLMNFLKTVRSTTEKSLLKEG
Experimental: IDO1Human Whole Blood Assay
Compounds to be tested were serially diluted in ten 3-fold steps in DMSO starting from 10 mM. […] LPS and IFNγ was prepared in RPMI to a 10× of final conc. (1000 ng/mL), final concentration is 100 ng/mL.
Human whole blood was drawn in sodium heparin coated tubes from healthy internal donors. […] of blood was transferred to each of the wells of a v-bottom 96 well plate. […] of compound was transferred from intermediate dilution plate, and incubated for 15 min. 30 μL from stimulants was then transferred to blood and mixed thoroughly. Plate was covered with breathable membrane and incubated at 37° C. for overnight (18 h).
On day 2 isotope labeled standard of kynurenine and tryptophan was made in water at 10× concentration and […] was added to the blood at […] final concentration. The assay plates were centrifuged at 300×G for 10 min with no brake to separate plasma from red blood cells. […] of plasma samples was removed without disturbing red blood cells. Plasma was diluted with RPMI in 1:1 ratio and proteins were precipitated out with two volume of Acetonitrile. The plates was centrifuged at 4000×G for 60 min. 20 mL of supernatant was carefully transferred to a 384 well plate contain 40 mL of 0.1% formic acid in water and analyzed by LC/MS/MS.
LC/MS/MS analyses were performed using Thermo Fisher's LX4-TSQ Quantum Ultra system. This system consists of four Agilent binary high-performance liquid chromatography (HPLC) pumps and a TSQ Quantum Ultra triple quadruple MS/MS instrument. For each sample, […] were injected onto an Atlantis T3 column (2.1 mm×150 mm, […]) from Waters. The mobile phase gradient pumped at 0.8 mL/min was used to elute the analytes from the column at 25° C. […] Mobile phase A consisted of 0.1% formic acid in water. Mobile phase B consisted of 0.1% of formic acid in acetonitrile. Data was acquired in positive mode using a HESI interface. The operational parameters for the TSQ Quantum Ultra instrument were a spray voltage of 4000 V, capillary temperature of 380° C., vaporizer temperature 400° C., shealth gas 60 arbitrary units, Aux gas 20 arbitrary units, tube lens 85 and collision gas 1.2 mTorr. […] The peak area was integrated by Xcalibur Quan software. The ratios between the kynurenine generated in the reaction and 2D6-Kynurenine spiked-in internal standard were used to generate percentage inhibition and IC50 values. Compounds were titrated and IC50′s were calculated by 4 parameter sigmoidal curve fitting formula.

IDO1 [2] = target: T1, IDO1; experiment: IDO1 cellular assay in Hela cells stimulated with IFNγ; conditions: IFNγ 100 ng/mL, 300 uM L-tryptophan, about 48 hours, fluorescence readout
TDO = target: T2, TDO (Homo sapiens, UniProt P48775); experiment: TDO cellular assay in frozen SW48 cells; conditions: 300 uM L-tryptophan, about 48 hours, fluorescence readout
T2 construct: endogenous in cells; host or cells: SW48 cells (A2780 cells as low-TDO control)
T2 sequence (P48775 whole entry): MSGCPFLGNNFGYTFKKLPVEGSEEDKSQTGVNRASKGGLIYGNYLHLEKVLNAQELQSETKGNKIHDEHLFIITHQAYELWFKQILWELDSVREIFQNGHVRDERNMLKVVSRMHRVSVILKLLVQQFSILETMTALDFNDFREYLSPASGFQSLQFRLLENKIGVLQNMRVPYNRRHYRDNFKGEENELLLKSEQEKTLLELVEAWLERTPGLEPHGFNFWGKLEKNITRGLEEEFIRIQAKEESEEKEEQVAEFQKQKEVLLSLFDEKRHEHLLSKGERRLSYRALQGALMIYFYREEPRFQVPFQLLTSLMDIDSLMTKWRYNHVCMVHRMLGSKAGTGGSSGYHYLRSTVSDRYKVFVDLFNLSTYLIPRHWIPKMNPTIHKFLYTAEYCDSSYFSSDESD

IC50 (IDO1 [1]): 2010 nM
IC50 (IDO1 [2]): 10 nM
IC50 (TDO): ≥ 10000 nM
Structure (SMILES): O=C(Nc1ccc(C2(C(=O)Nc3ccc(F)cc3)CCC2)cn1)C1CCCCC1 [Example 15, N-(5-{1-[(4-fluorophenyl)carbamoyl]cyclobutyl}pyridin-2-yl) cyclohexanecarboxamide]
